For this test, the target named is T1, human β-Secretase (Homo sapiens, UniProt P56817).
T1 construct: The soluble part of the human β-Secretase (AA 1-AA 460) was cloned; made in house
As to the kind of experiment: TR-FRET assay. It is filed as biochemical. The conditions noted are these: sBACE truncated form, substrate (Europium)CEVNLDAEFK(Qsy7) 100 nM, pH 4.5. The method, then: The enzyme used in the IGEN Cleavage-, Fluorescent-, TR-FRET- and the BiaCore assay is described as follows:
The soluble part of the human β-Secretase (AA 1-AA 460) was cloned into the ASP2-Fc10-1-IRES-GFP-neoK mammalian expression vector. The gene was fused to the Fc domain of IgG1 (affinity tag) and stably cloned into HEK 293 cells. Purified sBACE-Fc is stored in Tris buffer, pH 9.2 and has a purity of 95%.
Dilute the enzyme (truncated form) to 6 μg/mL (stock 1.3 mg/mL) and the substrate (Europium)CEVNLDAEFK(Qsy7) to 200 nM (stock 60 μM) in reaction buffer (NaAcetate, chaps, triton x-100, EDTA pH4.5). The Biomek FX is used for all liquid handling and the enzyme and substrate solutions are kept on ice until they are placed in Biomek FX. Enzyme (9 μl) is added to the plate then 1 μl of compound in dimethylsulphoxide is added, mixed and pre-incubated for 10 minutes. Substrate (10 μl) is then added, mixed and the reaction proceeds in the dark for 15 minutes at room temperature. The reaction is stopped with the addition of Stop solution (7 μl, NaAcetate pH 9). The fluorescence of the product is measured on a Victor II plate reader with an excitation wavelength of 340 nm and an emission wavelength of 615 nm. The assay is done in a Costar 384 well round bottom, low volume, non-binding surface (Corning #3676). […]
For orientation: Time-resolved FRET reads energy transfer from a long-lived donor to a nearby acceptor.

For two compounds, IC50 results are on record in patent US20090233930A9, “Novel 2-Amino-Imidazole-4-One Compounds and Their Use in the Manufacture of a Medicament to Be Used in the Treatment of Cognitive Impairment, Alzheimer's Disease, Neurodegeneration and Dementia” (ASTRAZENECA AB, priority 2005, published 2009).

Where a name gives a salt, the structure may show the parent alone.

T1 sequence (P56817 22-460): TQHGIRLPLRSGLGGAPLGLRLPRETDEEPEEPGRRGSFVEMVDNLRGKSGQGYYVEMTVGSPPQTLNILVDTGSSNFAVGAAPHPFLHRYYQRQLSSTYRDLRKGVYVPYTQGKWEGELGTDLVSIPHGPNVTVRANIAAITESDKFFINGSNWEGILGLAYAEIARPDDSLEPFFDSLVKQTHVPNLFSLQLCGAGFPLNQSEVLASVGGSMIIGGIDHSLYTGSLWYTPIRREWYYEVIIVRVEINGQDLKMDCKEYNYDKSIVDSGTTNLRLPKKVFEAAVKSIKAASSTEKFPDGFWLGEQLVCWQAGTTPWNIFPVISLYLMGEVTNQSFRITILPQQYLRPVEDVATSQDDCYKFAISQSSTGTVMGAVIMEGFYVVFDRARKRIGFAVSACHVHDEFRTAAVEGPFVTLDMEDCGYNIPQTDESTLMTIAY

By IC50 is commonly meant the concentration that gives 50% inhibition. Read a low IC50 as inhibition by little substance. The compound `COc1ccc(OS(=O)(=O)C(F)(F)F)c(-c2cccc(C3(c4ccccc4)N=C(N)N(C)C3=O)c2)c1` (centres unmarked) [Example 26, 3′-(2-Amino-1-methyl-5-oxo-4-phenyl-4,5-dihydro-1H-imidazol-4-yl)-5-methoxybiphenyl-2-yl trifluoromethanesulfonate hydrochloride] displayed an IC50 of 743 nM.

Consider `COc1cccc(-c2cccc(C3(c4cccc(OS(=O)(=O)C(F)(F)F)c4)N=C(N)N(C)C3=O)c2)c1` (centres unmarked) [Example 45, 3-[2-Amino-4-(3′-methoxybiphenyl-3-yl)-1-methyl-5-oxo-4,5-dihydro-1H-imidazol-4-yl]phenyl trifluoromethanesulfonate hydrochloride], for which the IC50 worked out at 258 nM.
